# Measurements from patent US20240238425A1, “HSD17B13 Inhibitors and/or Degraders” (Pfizer Inc., priority 2022, published 2024).
# Where a name gives a salt, the structure may show the parent alone.
# Test system: HiBiT-HSD17β13 fusion protein (N-terminal HiBiT-tagged HSD17β13 isoform D) in Huh7 HiBiT-HSD17β13 OE cells
# Assay: Whole-cell Huh7-HSD17B13 HiBiT assay (degrader potency and maximal efficacy, luminescence readout)
# Assay type: cell-based, human
# Details: 24 hour incubation, geometric mean, * = geometric mean for all forms tested (parent and salt forms); for DC50: read-out: Huh7_HIBIT-HSD17β13_DC50 GMean DC50; for Huh7_HIBIT-HSD17β13_DC50 GMean Asymptote Maximum: max. concentration 1 μM
# Summary of the method: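 Huh7 cells stably overexpressing N-terminal HiBiT-tagged HSD17β13 isoform D, clone matched to primary hepatocyte expression, were exposed to an 11-point, 1 in 3.162 dilution series (top 1 μM final) for 24 h at 37° C. Lytic HiBiT luminescence was normalised to DMSO and parental-cell controls; DC50 from four-parameter logistic fit, with CellTiter-Glo counter screen.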
DC50 [nM],SMILES,Huh7_HIBIT-HSD17β13_DC50 GMean Asymptote Maximum [%]
3.2,"Cc1ccc(C(=O)N2CCN(CCOc3ncc(-c4ccc5cn(C67CCC(CNC(=O)c8cc(F)c(O)c(F)c8F)(CC6)CC7)nc5c4)cn3)CC2)cc1N1CCC(=O)NC1=O [Example 91, N-[(4-{6-[2-(2-{4-[3-(2,4-dioxo-1,3-diazinan-1-yl)-4-methylbenzoyl]piperazin-1-yl}ethoxy)pyrimidin-5-yl]-2H-indazol-2-yl}bicyclo[2.2.2]octan-1-yl)methyl]-2,3,5-trifluoro-4-hydroxybenzamide]",73
2.7,"Cc1ccc(C(=O)N2CCC3(CCC(c4nc(-c5ccc6cn([C@H]7CC[C@H](CNC(=O)c8cc(F)c(O)c(F)c8F)CC7)nc6c5)no4)CC3)CC2)cc1N1CCC(=O)NC1=O [Example 96, N-({(1r,4r)-4-[6-(5-{3-[3-(2,4-dioxo-1,3-diazinan-1-yl)-4-methylbenzoyl]-3-azaspiro[5.5]undecan-9-yl}-1,2,4-oxadiazol-3-yl)-2H-indazol-2-yl]cyclohexyl}methyl)-2,3,5-trifluoro-4-hydroxybenzamide]",81
2.4,"O=C1CCN(c2cnn3cc(CCCN4CCN(c5ccc6cn([C@]78CC[C@](CNC(=O)c9cc(F)c(O)c(F)c9F)(CC7)CC8)nc6c5)CC4)ccc23)C(=O)N1 [Example 97, N-({4-[6-(4-{3-[3-(2,4-dioxo-1,3-diazinan-1-yl)pyrazolo[1,5-a]pyridin-6-yl]propyl}piperazin-1-yl)-2H-indazol-2-yl]bicyclo[2.2.2]octan-1-yl}methyl)-2,3,5-trifluoro-4-hydroxybenzamide, trifluoroacetate salt]",76
1.7,"O=C1CCN(c2cnn3cc(CCCN4CCN(c5ncc(-c6ccn7cc([C@]89CC[C@](CNC(=O)c%10cc(F)c(O)c(F)c%10F)(CC8)CC9)nc7c6)cn5)CC4)ccc23)C(=O)N1 [Example 99, N-[(4-{7-[2-(4-{3-[3-(2,4-dioxo-1,3-diazinan-1-yl)pyrazolo[1,5-a]pyridin-6-yl]propyl}piperazin-1-yl)pyrimidin-5-yl]imidazo[1,2-a]pyridin-2-yl}bicyclo[2.2.2]octan-1-yl)methyl]-2,3,5-trifluoro-4-hydroxybenzamide, formate salt]",70
1.2,"Cc1ccc(C(=O)N2CCC3(CCC(CN4CCN(c5ccc6cn([C@H]7CC[C@H](CNC(=O)c8cc(F)c(O)c(F)c8F)CC7)nc6c5)CC4)CC3)CC2)cc1N1CCC(=O)NC1=O [Example 103, N-{[(1r,4r)-4-{6-[4-({3-[3-(2,4-dioxo-1,3-diazinan-1-yl)-4-methylbenzoyl]-3-azaspiro[5.5]undecan-9-yl}methyl)piperazin-1-yl]-2H-indazol-2-yl}cyclohexyl]methyl}-2,3,5-trifluoro-4-hydroxybenzamide, trifluoroacetate salt]",76
3.6,"Cc1ccc(C(=O)N2CCC3(CCC(N4CCN(c5ccc6cn([C@H]7CC[C@H](CNC(=O)c8cc(F)c(O)c(F)c8F)CC7)nc6c5)CC4)CC3)C2)cc1N1CCC(=O)NC1=O (some centres unmarked) [Example 104, N-({(1r,4r)-4-[6-(4-{2-[3-(2,4-dioxo-1,3-diazinan-1-yl)-4-methylbenzoyl]-2-azaspiro[4.5]decan-8-yl}piperazin-1-yl)-2H-indazol-2-yl]cyclohexyl}methyl)-2,3,5-trifluoro-4-hydroxybenzamide, trifluoroacetate salt]",78

SMILES,DC50 [nM],Huh7_HIBIT-HSD17β13_DC50 GMean Asymptote Maximum [%]
"O=C(O)C(F)(F)F.O=C1CCN(c2cnn3cc(CCCN4CCN(c5ncc(-c6ccc7cn(C89CCC(CNC(=O)c%10cc(F)c(O)c(F)c%10F)(CC8)CC9)nc7c6)cn5)CC4)ccc23)C(=O)N1 [Example 105, N-[(4-{6-[2-(4-{3-[3-(2,4-dioxo-1,3-diazinan-1-yl)pyrazolo[1,5-a]pyridin-6-yl]propyl}piperazin-1-yl)pyrimidin-5-yl]-2H-indazol-2-yl}bicyclo[2.2.2]octan-1-yl)methyl]-2,3,5-trifluoro-4-hydroxybenzamide, trifluoroacetate salt]",1.3,76
